The text below walks through data of patent US8063107B2, “Use of trans-pellitorin as flavor substance” (Symrise AG, priority 2002, dated 2011).

Entries after “also recorded” stand apart in the source; their conditions may differ. Read-outs that look alike come from different tables or passages of the source.

The conditions of assay [1]: cited from earlier work.
Another assay concerns group of 6 to 8 testers. The assay can be described thus: Tasting of trans-pellitorin in 11 wt. % sugar solution by a group of testers. As to conditions: for sensory impression on tasting: approximately 5 ml swallowed. It counts as in vivo. The protocol:
The trans-pellitorin was dissolved in ethanol and the ethanolic solution was then diluted with an 11 wt. % sugar solution (final concentration: c). For tasting, respectively approximately 5 ml of the sugar solution was respectively swallowed.

As for `C/C=C/C=C\CC/C=C/C(=O)NCC(C)C` [spilanthol, 2E,6Z,8E-decatrienoic acid-N-isobutylamide, reference compound], the sensory impression entry in assay [1] (Lebensm.-Wiss. U.-Technol. 1992, 25, 417-421) was “strongly salivation inducing and tingly or prickly; also recorded: spicy-hot and strongly numbing as well as an astringent”.
Turning to `CCCCC/C=C/C=C/C(=O)NCC(C)C` [trans-pellitorin, 2E,4E-decadienoic acid-N-isobutylamide], the “sensory impression on tasting” value with group of 6 to 8 testers (c=10 ppm in 11 wt. % sugar solution) was “salivation inducing, slightly prickly, not spicy hot”; with group of 6 to 8 testers (c=20 ppm in 11 wt. % sugar solution), “salivation inducing, slightly numbing, slightly fatty, weakly fruity, prickly, persistent, not spicy hot”. The “concentration in the final product at which a saliva inducing effect only is observed, no additional sensory impressions” value in the assay on group of 6 to 8 testers (final product, e.g. finished preparation) was “below 20 ppm”. For the same compound, the “sensory impression in taste research” value in the assay on group of 6 to 8 testers (taste research, general statement) was “pleasant saliva-inducing and slightly prickly sensory impression, with relatively prolonged effect”. In assay [1] (J. Agric. Food Chem. 1981, 29, 115, Fitoterapia 2001, 72, 197), the sensory impression result is “primarily numbing”. Besides, in assay [1] (pure state, J. Am. Chem. Soc. 1953, 75, 2584-2586), the “sensory impression on tasting in the pure state” value was “besides an elevated saliva flow, a strong burning effect on the tongue”.
